# From US20250026733A1, “DEUTERATED ANALOGS OF PYROLE INHIBITORS OF ERK, SYNTHESIS THEREOF AND INTERMEDIATES THERETO” (BIOMED VALLEY DISCOVERIES, INC., priority 2022, published 2025)
# Read-outs that look alike come from different tables or passages of the source.
# Assays:
# CYP2B6 = target: T1, CYP2B6 (Homo sapiens, UniProt P20813); experiment: In-vitro CYP inhibition study, CYP2B6; assay type: in vitro ADME; conditions: human liver microsomes, substrate Bupropion (90 μM)
# T1 construct: from tissue; host or cells: human liver microsomes, mixed-gender pool of 200
# T1 sequence (P20813 1-491): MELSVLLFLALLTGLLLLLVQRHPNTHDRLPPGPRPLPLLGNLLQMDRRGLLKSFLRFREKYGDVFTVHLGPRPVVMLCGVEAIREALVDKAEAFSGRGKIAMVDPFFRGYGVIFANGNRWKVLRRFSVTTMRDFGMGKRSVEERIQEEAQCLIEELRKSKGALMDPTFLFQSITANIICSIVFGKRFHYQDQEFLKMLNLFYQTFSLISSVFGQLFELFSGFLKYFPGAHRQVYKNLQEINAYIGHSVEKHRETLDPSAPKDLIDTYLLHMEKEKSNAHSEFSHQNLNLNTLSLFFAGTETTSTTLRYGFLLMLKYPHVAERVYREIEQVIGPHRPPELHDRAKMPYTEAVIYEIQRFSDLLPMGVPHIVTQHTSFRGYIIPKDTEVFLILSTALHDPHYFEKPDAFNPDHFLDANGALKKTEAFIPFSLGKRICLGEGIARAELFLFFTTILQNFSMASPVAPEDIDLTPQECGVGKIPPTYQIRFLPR
# Protocol: (§1) Incubations were conducted using a cocktail of seven prototypical CYP substrates to ascertain the potential of each test article to inhibit the metabolism of concomitantly administered drugs. A mixed-gender pool of 200 human liver microsomal samples was used for this study. Incubations were conducted at approximately 37° C. in 200 μL incubation mixtures (pH 7.4) containing water, potassium phosphate buffer (50 mM), MgCl2 (3 mM), EDTA (1 mM), an NADPH regenerating system (NADP [1 mM], glucose 6 phosphate [5 mM], glucose 6 phosphate dehydrogenase [1 Unit/mL]), and probe substrate (i.e., a seven substrate cocktail) at the final concentrations indicated in Table 9. Reactions were initiated by the addition of NADPH-regenerating system and were automatically terminated at approximately 5 minutes by the addition of internal standard mixed in stop reagent, acetonitrile. The samples were centrifuged at 920×g for 10 minutes at 10° C. The supernatant fractions were analyzed by LC-MS/MS. To examine its ability to act as a time-dependent inhibitor of CYP enzymes, each test article (at the same concentrations used to evaluate direct inhibition, (i.e. 0, 0.02, 0.06, 0.2, 0.6, 2, 6, 20 μM) was pre-incubated at 37±2° C. with NADPH-fortified human liver microsomes for approximately 30 minutes. The pre-incubations were initiated by the addition of NADPH-regenerating system. After 30 min, probe substrate incubations were initiated by the addition of probe substrate cocktail. Incubations were terminated and samples were analyzed by LC-MS/MS. When inhibition was observed, the data were processed with a LIMS for the determination of IC50 values by utilizing the Levenberg-Marquardt algorithm to perform non-linear regression fitting of the data to the following 4-parameter sigmoidal-logistic IC50 equation:
# (§2) As percent of control values are utilized, the minimum value (Min) is set to zero and the maximum value (Max) is set to 100 (or other values, as appropriate). The LIMS calculates an IC50 value only when it lies within the concentration range of the inhibitor studied. Therefore, when an IC50 value falls outside the concentration range studied, the IC50 values are reported to be greater than the highest concentration of the test article evaluated.
# [1] = Half-life determination in human liver microsomes; assay type: in vitro ADME; conditions: for half-life at 1 μM: human, NADPH; for Half-life, % change relative to ulixertinib: mean
# Protocol: Human microsomes from a pool of 10 donors was obtained from a commercial source. Microsomes prepared in potassium phosphate buffer were spiked with ulixertinib, Formula 18, Formula 19, and Formula 21 individually in replicates of six at a final concentration of 1 μM. NADPH was used to initiate the experiment; a control of minus NADPH (minus cofactor) was also run in parallel to the human liver microsome stability. After spiking with test article, microsome replicates were placed in a 37° C. incubator with the following time course: 0, 5, 10, 15, 20, 30, 45 and 60 minutes. Samples were extracted with a protein precipitation quench consisting of ice cold acetonitrile containing internal standard (tolbutamide). Samples were analyzed for ulixertinib, Formula 18, Formula 19, and Formula 21. The half-lives of ulixertinib, Formula 18, Formula 19, and Formula 21 were characterized by the […] to determine the elimination rate (ke) and using the formula described below.
# [formula] • ke (elimination rate): the slope of ln(percent remaining) vs time (in minutes)
# CYP2B6 mRNA expression = conditions: human, hepatocytes, 24 h
# Protocol: (§3) A single preparation of characterized cryopreserved human hepatocytes isolated from non-transplantable human livers was treated in this study. Triplicate wells for each of the cultures were treated in 48-well plates with supplemented MCM (37±2° C.) containing 0.1% v/v DMSO (solvent control), one of three concentrations of each test article (1, 10 and 20 μM) or positive control CYP enzyme inducers omeprazole (50 μM), phenobarbital (1000 μM) or rifampin (20 μM). The cultures were incubated in a humidified culture chamber (37±2° C. at 95% relative humidity, 95/5% air/CO2). Approximately 24 h after treatment, hepatocytes were lysed in Buffer RLT reagent containing β-mercaptoethanol (100:1). The medium was aspirated, and Buffer RLT was added to each well. The cell lysates were prepared by repeated pipetting and shaking. Total RNA was isolated using the RNeasy Mini Kit. RNA quality and concentration were determined by measuring absorbance at 260 and 280 nm on a plate reader. Single-stranded cDNA was prepared from RNA with the RT Master Mix. The RT Master Mix comprises 10×RT buffer, 25× deoxyNTPs, 10× Random primers, RNase Inhibitor (20 U/μL), MultiScribe reverse transcriptase (50 U/μL) and RNase-free water. The RT Master Mix was added to each RNA sample to complete the components of the reaction. No template controls (NTCs) were included in the analysis. For the NTC reactions, RNase-free water was added in place of the RNA sample. The prepared cDNA samples were stored at −20±5° C. following analysis by qRT-PCR. Each PCR was performed in quadruplicate. A Primer Mix was prepared for each Gene Expression assay. A typical Primer Mix contained TaqMan Fast Advanced Master Mix (1×), Gene Expression Assay (1×, 900 nM forward and reverse primers) and RNase-free water. The Reaction Mix was prepared by adding the Primer Mix to cDNA. A percentage of samples (no less than 10%) included NAC (no amplification control) samples. […] Reactions were analyzed on a PCR sequence detection system. The relative quantity of the target cDNA compared with that of the control cDNA (GAPDH) was determined by the ΔΔCt method. Relative quantitation measures the change in mRNA expression in a test sample relative to that in a control sample (e.g., DMSO). This method assumes that the efficiency of the target amplification and the efficiency of the endogenous control amplification are approximately equal.
# CYP3A4 mRNA expression [2] = conditions: human, hepatocytes, 24 h
# Protocol: as §3
# CYP2D6 = target: T2, CYP2D6 (Homo sapiens, UniProt P10635); experiment: In-vitro CYP inhibition study, CYP2D6; assay type: in vitro ADME; conditions: human liver microsomes, substrate Dextramethorphan (10 μM)
# T2 construct: from tissue; host or cells: human liver microsomes, mixed-gender pool of 200
# T2 sequence (P10635 whole entry): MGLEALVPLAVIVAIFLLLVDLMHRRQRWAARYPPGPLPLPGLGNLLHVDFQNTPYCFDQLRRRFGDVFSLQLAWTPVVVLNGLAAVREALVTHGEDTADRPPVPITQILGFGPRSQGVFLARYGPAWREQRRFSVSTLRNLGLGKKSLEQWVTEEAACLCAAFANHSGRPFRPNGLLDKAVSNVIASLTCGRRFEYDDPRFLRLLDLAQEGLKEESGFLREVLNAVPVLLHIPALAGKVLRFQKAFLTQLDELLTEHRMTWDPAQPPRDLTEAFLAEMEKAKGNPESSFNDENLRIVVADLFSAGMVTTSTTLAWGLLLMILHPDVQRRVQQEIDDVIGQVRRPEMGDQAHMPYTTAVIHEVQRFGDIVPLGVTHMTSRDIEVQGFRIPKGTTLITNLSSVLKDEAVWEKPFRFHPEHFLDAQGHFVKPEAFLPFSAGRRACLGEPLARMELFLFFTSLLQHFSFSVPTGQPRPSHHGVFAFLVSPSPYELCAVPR
# Protocol: as §1, §2
# CYP2C9 = target: T3, CYP2C9 (Homo sapiens, UniProt P11712); experiment: In-vitro CYP inhibition study, CYP2C9; assay type: in vitro ADME; conditions: human liver microsomes, substrate Diclofenac (12 μM)
# T3 construct: from tissue; host or cells: human liver microsomes, mixed-gender pool of 200
# T3 sequence (P11712 whole entry): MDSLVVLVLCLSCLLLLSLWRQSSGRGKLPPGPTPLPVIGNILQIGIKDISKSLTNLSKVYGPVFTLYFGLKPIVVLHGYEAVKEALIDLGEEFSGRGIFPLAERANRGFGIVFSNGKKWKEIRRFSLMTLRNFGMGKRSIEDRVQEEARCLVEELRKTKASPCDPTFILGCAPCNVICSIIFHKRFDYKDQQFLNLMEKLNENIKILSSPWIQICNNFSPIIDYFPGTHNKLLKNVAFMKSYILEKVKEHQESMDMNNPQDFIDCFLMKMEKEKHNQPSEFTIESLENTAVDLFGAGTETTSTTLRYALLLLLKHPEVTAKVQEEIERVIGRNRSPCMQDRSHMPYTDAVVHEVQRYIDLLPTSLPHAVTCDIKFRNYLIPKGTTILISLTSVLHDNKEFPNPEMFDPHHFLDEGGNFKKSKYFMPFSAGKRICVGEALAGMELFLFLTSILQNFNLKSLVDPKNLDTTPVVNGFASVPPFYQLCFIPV
# Protocol: as §1, §2
# CYP3A4 mRNA expression [3] = experiment: In-vitro CYP induction study, CYP3A4 mRNA in cultured human hepatocytes; conditions: 20 μM, approximately 24 h
# Protocol: as §3
# [4] = Rep 1, read-out: Half-life, t½, Rep 1
# [5] = Rep 2, read-out: Half-life, t½, Rep 2
# [6] = Rep 3, read-out: Half-life, t½, Rep 3
# [7] = Rep 4, read-out: Half-life, t½, Rep 4
# [8] = Rep 5, read-out: Half-life, t½, Rep 5
# [9] = Rep 6, read-out: Half-life, t½, Rep 6
# [10] = six replicates, read-out: Half-life, t½, Mean ± SD
IC50 (CYP2B6; preincubation 0 min),IC50 (CYP2B6; preincubation 30 min),"half-life at 1 μM [1, 4]","half-life at 1 μM [1, 5]","half-life at 1 μM [1, 6]","half-life at 1 μM [1, 7]","half-life at 1 μM [1, 8]","half-life at 1 μM [1, 9]","half-life at 1 μM [1, 10]","Half-life, % change relative to ulixertinib [1]",Fold Change in mRNA Expression of CYP2B6 (CYP2B6 mRNA expression; 1 μM),Fold Change in mRNA Expression of CYP2B6 (CYP2B6 mRNA expression; 10 μM),Fold Change in mRNA Expression of CYP3A4 (CYP3A4 mRNA expression [2]; 1 μM),Fold Change in mRNA Expression of CYP3A4 (CYP3A4 mRNA expression [2]; 10 μM),IC50 (CYP2D6; preincubation 30 min),IC50 (CYP2C9; preincubation 0 min),IC50 (CYP2C9; preincubation 30 min),Fold Change in mRNA Expression of CYP3A4 (CYP3A4 mRNA expression [3]),IC50 (CYP2D6; preincubation 0 min),SMILES,other results
14 µM,16 µM,43.4 min,45.2 min,46.1 min,44.9 min,47.8 min,44.9 min,45.4 ± 1.5 min,(−7%),1.47 fold,2.10 fold,2.06 fold,9.42 fold,> 20 µM,3.1 µM,4.3 µM,11.7 fold,–,"[2H]C([2H])([2H])C(Nc1cc(-c2c[nH]c(C(=O)N[C@H](CO)c3cccc(Cl)c3)c2)c(Cl)cn1)C([2H])([2H])[2H] [Formula 19, 4-(5-chloro-2-((propan-2-yl-1,1,1,3,3,3-d6)amino)pyridin-4-yl)-N-(1-(3-chiorophenyl)-2-hydroxyethyl)-1H-pyrrole-2-carboxamide]","shorter half-life compared to ulixertinib ([1]; Table 5): 7%; IC50 at 5 min (CYP2D6; both sexes, human, pH 7.4, probe Dextramethorphan (10 μM), preincubation 0 min): 20 µM"
17 µM,19 µM,–,–,–,–,–,–,–,–,1.08 fold,2.04 fold,1.39 fold,5.29 fold,> 20 µM,3.4 µM,4.4 µM,6.86 fold,> 20 µM,Cl.[2H]C(C)(C)Nc1cc(-c2c[nH]c(C(=O)N[C@H](CO)c3cccc(Cl)c3)c2)c(Cl)cn1 [Formula 21A],–
11 µM,16 µM,49.2 min,51.2 min,50.3 min,46.2 min,48.5 min,48.1 min,48.9 ± 1.8 min,–,1.25 fold,1.99 fold,1.52 fold,6.84 fold,18 µM,3.1 µM,3.4 µM,8.26 fold,> 20 µM,"CC(C)Nc1cc(-c2c[nH]c(C(=O)N[C@H](CO)c3cccc(Cl)c3)c2)c(Cl)cn1 [Ulixertinib, reference compound]",–
12 µM,16 µM,59.2 min,58.7 min,60.6 min,55.8 min,57.5 min,62 min,59 ± 2.2 min,(+21%),1.36 fold,1.90 fold,1.83 fold,5.39 fold,19 µM,3.5 µM,3.9 µM,7.06 fold,> 20 µM,"[2H]C([2H])([2H])C([2H])(Nc1cc(-c2c[nH]c(C(=O)N[C@H](CO)c3cccc(Cl)c3)c2)c(Cl)cn1)C([2H])([2H])[2H] [Formula 18, 4-(5-chloro-2-((propan-2-yl-d7)amino)pyridin-4-yl)-N-(1-(3-chlorophenyl)-2-hydroxyethyl)-1H-pyrrole-2-carboxamide]",longer half-life than ulixertinib ([1]; Table 5): 21%
